From patent US7981903B2, “2-[2-{phenylamino}-1H-pyrrolo[2,3-D]pyrimidin-4-yl)amino] benzamide derivatives as IGF-1R inhibitors for the treatment of cancer” (GlaxoSmithKline LLC, priority 2007, dated 2011)

Assays:
[1] = target: T1, NIH-3T3 cells overexpressing human IR (Homo sapiens, UniProt P06213); assay: IR cellular autophosphorylation (DELFIA); assay type: cell-based; details: 2 h compound, insulin 3 ug/ml for 15 minutes, IC50 category
T1 construct: expressed in transfected cells; host or cells: NIH-3T3 (mouse fibroblasts)
T1 sequence (P06213 28-1382): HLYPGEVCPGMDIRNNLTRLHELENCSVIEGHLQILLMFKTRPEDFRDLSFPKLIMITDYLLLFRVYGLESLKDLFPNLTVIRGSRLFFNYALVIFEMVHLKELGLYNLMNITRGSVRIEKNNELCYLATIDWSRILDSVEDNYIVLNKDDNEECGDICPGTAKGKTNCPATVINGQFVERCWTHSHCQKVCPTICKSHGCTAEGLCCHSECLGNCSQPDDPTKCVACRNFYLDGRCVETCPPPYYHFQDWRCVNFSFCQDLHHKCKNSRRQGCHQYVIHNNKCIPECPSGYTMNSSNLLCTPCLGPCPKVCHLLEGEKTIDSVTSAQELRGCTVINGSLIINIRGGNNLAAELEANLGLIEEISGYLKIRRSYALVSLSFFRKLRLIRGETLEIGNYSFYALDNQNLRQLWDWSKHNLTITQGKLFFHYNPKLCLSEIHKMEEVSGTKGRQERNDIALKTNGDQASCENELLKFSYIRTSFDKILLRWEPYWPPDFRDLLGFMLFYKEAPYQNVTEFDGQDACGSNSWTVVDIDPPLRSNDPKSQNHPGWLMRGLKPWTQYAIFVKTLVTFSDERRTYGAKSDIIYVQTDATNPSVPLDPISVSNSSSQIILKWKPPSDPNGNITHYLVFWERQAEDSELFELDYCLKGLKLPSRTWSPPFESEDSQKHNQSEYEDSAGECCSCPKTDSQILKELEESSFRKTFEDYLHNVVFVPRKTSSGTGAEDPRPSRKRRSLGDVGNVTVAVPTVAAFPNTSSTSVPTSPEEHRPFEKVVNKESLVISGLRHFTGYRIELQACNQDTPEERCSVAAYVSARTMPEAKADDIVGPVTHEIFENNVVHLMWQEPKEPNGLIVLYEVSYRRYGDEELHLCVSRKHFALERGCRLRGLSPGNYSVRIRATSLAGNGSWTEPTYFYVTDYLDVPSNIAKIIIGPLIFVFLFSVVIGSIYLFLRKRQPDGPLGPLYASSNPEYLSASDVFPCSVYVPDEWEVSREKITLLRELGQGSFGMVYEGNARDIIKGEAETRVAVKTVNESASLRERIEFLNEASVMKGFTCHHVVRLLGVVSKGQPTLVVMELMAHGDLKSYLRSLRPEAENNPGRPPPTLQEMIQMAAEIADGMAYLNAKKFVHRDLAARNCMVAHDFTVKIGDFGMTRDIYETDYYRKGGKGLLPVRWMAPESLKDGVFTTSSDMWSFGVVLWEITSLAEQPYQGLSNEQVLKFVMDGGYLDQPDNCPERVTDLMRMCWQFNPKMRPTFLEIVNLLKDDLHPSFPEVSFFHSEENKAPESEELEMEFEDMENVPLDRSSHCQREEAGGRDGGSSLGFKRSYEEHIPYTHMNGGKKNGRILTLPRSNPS
In short: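 Receptor autophosphorylation measured by DELFIA, capturing IGF-1R or IRβ and detecting with europium anti-pTyr, reported as percent of IGF-1- or insulin-stimulated signal. Compounds (30 uM to 1.5 nM) added 2 h before ligand, then 15 min stimulation (IGF-1 30 ng/ml or insulin 3 ug/ml).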

NCI-H929 = assay: Inhibition of cell proliferation (CellTiter-Glo or InCell analyzer), NCI-H929; assay type: cell-based; details: Homo sapiens, 72 h / 3 days, values given as IC50 category
In short: In one

Colo205 = assay: Inhibition of cell proliferation (CellTiter-Glo or InCell analyzer), Colo205; assay type: cell-based; details: Homo sapiens, COLO 205, 72 h / 3 days, values given as IC50 category
In short: In one

ALK = ALK (Homo sapiens, UniProt Q9UM73); assay: ALK enzyme assay (HTRF); assay type: biochemical; details: 0.25 nM ALK, 15.0 μM ATP, values given as pIC50 category
Chain of ALK (Q9UM73 19-1620): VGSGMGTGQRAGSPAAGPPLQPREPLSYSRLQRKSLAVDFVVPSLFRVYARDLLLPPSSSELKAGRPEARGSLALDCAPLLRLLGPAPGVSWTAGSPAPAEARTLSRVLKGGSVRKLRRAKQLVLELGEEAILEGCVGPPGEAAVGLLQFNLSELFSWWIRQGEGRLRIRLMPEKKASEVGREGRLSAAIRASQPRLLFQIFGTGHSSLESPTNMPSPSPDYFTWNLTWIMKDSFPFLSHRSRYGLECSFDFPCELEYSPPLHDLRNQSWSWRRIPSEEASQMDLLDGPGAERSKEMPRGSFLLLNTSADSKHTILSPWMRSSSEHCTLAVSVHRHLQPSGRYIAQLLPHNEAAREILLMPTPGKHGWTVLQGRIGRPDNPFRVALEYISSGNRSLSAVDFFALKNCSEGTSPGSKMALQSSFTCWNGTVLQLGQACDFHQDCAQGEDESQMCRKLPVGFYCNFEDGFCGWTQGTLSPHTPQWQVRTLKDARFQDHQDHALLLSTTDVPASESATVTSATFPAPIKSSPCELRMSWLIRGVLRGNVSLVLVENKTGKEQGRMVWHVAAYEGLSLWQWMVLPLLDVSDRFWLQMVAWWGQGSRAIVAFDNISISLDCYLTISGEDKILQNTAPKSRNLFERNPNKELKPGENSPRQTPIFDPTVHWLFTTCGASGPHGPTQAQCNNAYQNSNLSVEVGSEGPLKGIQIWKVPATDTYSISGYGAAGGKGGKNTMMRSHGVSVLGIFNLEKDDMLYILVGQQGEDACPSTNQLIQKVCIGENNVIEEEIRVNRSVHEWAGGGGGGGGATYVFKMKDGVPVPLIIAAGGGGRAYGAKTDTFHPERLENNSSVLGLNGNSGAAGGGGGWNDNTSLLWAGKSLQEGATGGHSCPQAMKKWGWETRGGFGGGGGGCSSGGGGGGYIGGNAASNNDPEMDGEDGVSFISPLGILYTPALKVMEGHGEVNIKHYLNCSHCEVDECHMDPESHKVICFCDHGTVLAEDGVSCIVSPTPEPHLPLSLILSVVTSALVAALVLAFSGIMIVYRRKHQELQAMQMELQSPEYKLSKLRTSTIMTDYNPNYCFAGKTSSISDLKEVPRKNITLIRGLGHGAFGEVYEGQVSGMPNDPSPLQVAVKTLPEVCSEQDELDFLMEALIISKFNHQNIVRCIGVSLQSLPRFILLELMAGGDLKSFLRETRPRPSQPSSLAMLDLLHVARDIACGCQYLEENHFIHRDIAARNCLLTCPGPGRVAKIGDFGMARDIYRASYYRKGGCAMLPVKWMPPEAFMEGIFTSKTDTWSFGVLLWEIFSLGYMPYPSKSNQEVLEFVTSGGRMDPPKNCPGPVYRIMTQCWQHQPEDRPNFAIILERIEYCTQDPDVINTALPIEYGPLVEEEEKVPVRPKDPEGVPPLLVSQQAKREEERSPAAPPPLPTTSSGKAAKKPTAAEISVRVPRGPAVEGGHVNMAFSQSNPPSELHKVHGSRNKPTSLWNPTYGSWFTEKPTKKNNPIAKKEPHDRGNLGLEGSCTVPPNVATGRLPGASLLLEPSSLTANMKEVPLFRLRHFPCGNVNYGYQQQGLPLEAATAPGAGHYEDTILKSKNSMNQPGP
In short: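 Final compound range 0.00017 to 10 μM (twelve 1:3 dilutions). Kinase reaction with ATP and biotinylated synthetic peptide runs 120 min at 20° C, stopped with EDTA; phosphotyrosine detected by HTRF after 60 min. Inhibition referenced to DMSO (1%) and EDTA (0.1 M) controls, curve-fitted.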

**Q.** How did the IC50 [1] turn out when `COc1cc(N2CCN(C(C)C)CC2)c(C)cc1Nc1nc(Nc2cc(F)cc(F)c2C(N)=O)c2cc[nH]c2n1` [Example 91, 2,4-difluoro-6-[(2-{[5-methyl-4-[4-(1-methylethyl)-1-piperazinyl]-2-(methyloxy)phenyl]amino}-1H-pyrrolo[2,3-d]pyrimidin-4-yl)amino]benzamide] was run?
**A.** Its IC50 is less than 100 nM.

**Q.** What about the IC50 (NCI-H929) of the same compound?
**A.** The IC50 was less than 250 nM.

**Q.** What about the IC50 (Colo205) of the same compound?
**A.** Its IC50 is less than 250 nM.

**Q.** And the IC50 (ALK)?
**A.** The IC50 was 0.251 to 1 nM.

**Q.** Which IC50 [1] does the source give for `COc1ccc(NC(=O)CN(C)C)cc1Nc1nc(Nc2cccc(F)c2C(N)=O)c2cc[nH]c2n1` [Example 244, 2-[(2-{[5-[(N,N-dimethylglycyl)amino]-2-(methyloxy)phenyl]amino}-1H-pyrrolo[2,3-d]pyrimidin-4-yl)amino]-6-fluorobenzamide] here?
**A.** The IC50 was less than 100 nM.

**Q.** What about the IC50 (NCI-H929) of the same compound?
**A.** Its IC50 is less than 250 nM.

**Q.** And the IC50 (Colo205)?
**A.** The IC50 was less than 250 nM.

**Q.** What about the IC50 (ALK) of the same compound?
**A.** The IC50 was 0.251 to 1 nM.

**Q.** For `CCC(C)N1CCc2cc(OC)c(Nc3nc(Nc4cccc(F)c4C(=O)NC)c4cc[nH]c4n3)cc2C1` (centres unmarked) [Example 238, 2-fluoro-N-methyl-6-[(2-{[6-(methyloxy)-2-(1-methylpropyl)-1,2,3,4-tetrahydro-7-isoquinolinyl]amino}-1H-pyrrolo[2,3-d]pyrimidin-4-yl)amino]benzamide], which IC50 [1] is on record?
**A.** Its IC50 is 100 to 500 nM.

**Q.** What about the IC50 (NCI-H929) of the same compound?
**A.** Its IC50 is 250 to 1000 nM.

**Q.** And the IC50 (Colo205)?
**A.** Its IC50 is greater than 1000 nM.

**Q.** And the IC50 (ALK)?
**A.** Its IC50 is 1.26 to 3.98 nM.

**Q.** What does the source list for `CNC(=O)c1c(F)cccc1Nc1nc(Nc2cc3c(cc2OC)CCN3C(=O)C(C)(C)O)nc2[nH]ccc12` [Example 193, 2-fluoro-6-[(2-{[1-(2-hydroxy-2-methylpropanoyl)-5-(methyloxy)-2,3-dihydro-1H-indol-6-yl]amino}-1H-pyrrolo[2,3-d]pyrimidin-4-yl)amino]-N-methylbenzamide]?
**A.** IC50 [1]: > 500 nM; IC50 (NCI-H929): > 1000 nM; IC50 (Colo205): > 1000 nM; IC50 (ALK): 5.01 to 200 nM

**Q.** For `COc1cc2c(cc1Nc1nc(Nc3cccc(F)c3C(N)=O)c3cc[nH]c3n1)N(C(=O)CN1CCOCC1)CC2` [Example 185, 2-fluoro-6-[(2-{[5-(methyloxy)-1-(4-morpholinylacetyl)-2,3-dihydro-1H-indol-6-yl]amino}-1H-pyrrolo[2,3-d]pyrimidin-4-yl)amino]benzamide], which IC50 [1] is on record?
**A.** Its IC50 is greater than 500 nM.

**Q.** What about the IC50 (NCI-H929) of the same compound?
**A.** The IC50 was less than 250 nM.

**Q.** And the IC50 (Colo205)?
**A.** Its IC50 is greater than 1000 nM.

**Q.** And the IC50 (ALK)?
**A.** Its IC50 is 5.01 to 200 nM.

**Q.** `CCCN1CCC=C(c2ccc(Nc3nc(Nc4ccccc4C(N)=O)c4cc[nH]c4n3)c(OC)c2)C1` [Example 2, 2-[(2-{[2-(methyloxy)-4-(1-propyl-1,2,5,6-tetrahydro-3-pyridinyl)phenyl]amino}-1H-pyrrolo[2,3-d]pyrimidin-4-yl)amino]benzamide] was tested. Which IC50 [1] did it give?
**A.** Its IC50 is 100 to 500 nM.

**Q.** And the IC50 (NCI-H929)?
**A.** Its IC50 is less than 250 nM.

**Q.** And the IC50 (Colo205)?
**A.** Its IC50 is less than 250 nM.

**Q.** And the IC50 (ALK)?
**A.** Its IC50 is 0.251 to 1 nM.

**Q.** With `CCCN1CCC(N2CCc3cc(OC)c(Nc4nc(Nc5cccc(F)c5C(N)=O)c5cc[nH]c5n4)cc3C2)CC1` [Example 122, 2-fluoro-6-[(2-{[6-(methyloxy)-2-(1-propyl-4-piperidinyl)-1,2,3,4-tetrahydro-7-isoquinolinyl]amino}-1H-pyrrolo[2,3-d]pyrimidin-4-yl)amino]benzamide] as the compound, how does the IC50 [1] read?
**A.** The IC50 was less than 100 nM.

**Q.** And the IC50 (NCI-H929)?
**A.** The IC50 was less than 250 nM.

**Q.** What about the IC50 (Colo205) of the same compound?
**A.** The IC50 was greater than 1000 nM.

**Q.** And the IC50 (ALK)?
**A.** Its IC50 is 5.01 to 200 nM.

**Q.** What does the source list for `COc1cc2c(cc1Nc1nc(Nc3cc4ccccc4cc3C(N)=O)c3cc[nH]c3n1)N(C(=O)CN(C)C)CC2` [Example 124, 3-[(2-{[1-(N,N-dimethylglycyl)-5-(methyloxy)-2,3-dihydro-1H-indol-6-yl]amino}-1H-pyrrolo[2,3-d]pyrimidin-4-yl)amino]-2-naphthalenecarboxamide]?
**A.** IC50 [1]: 100 to 500 nM; IC50 (NCI-H929): < 250 nM; IC50 (Colo205): < 250 nM; IC50 (ALK): 1.26 to 3.98 nM

**Q.** `COc1cc2c(cc1Nc1nc(Nc3cccc(F)c3C(N)=O)c3cc[nH]c3n1)CN(C(=O)CCN1CCOCC1)CC2` [Example 231, 2-fluoro-6-{[2-({6-(methyloxy)-2-[3-(4-morpholinyl)propanoyl]-1,2,3,4-tetrahydro-7-isoquinolinyl}amino)-1H-pyrrolo[2,3-d]pyrimidin-4-yl]amino}benzamide] was tested. Which IC50 [1] did it give?
**A.** Its IC50 is greater than 500 nM.

**Q.** And the IC50 (NCI-H929)?
**A.** The IC50 was 250 to 1000 nM.

**Q.** And the IC50 (Colo205)?
**A.** The IC50 was greater than 1000 nM.

**Q.** What about the IC50 (ALK) of the same compound?
**A.** The IC50 was 5.01 to 200 nM.

**Q.** For `COc1cc(N2CCN(C(C)C)CC2)ccc1Nc1nc(Nc2cc(F)cc(F)c2C(N)=O)c2cc[nH]c2n1` [Example 89, 2,4-difluoro-6-[(2-{[4-[4-(1-methylethyl)-1-piperazinyl]-2-(methyloxy)phenyl]amino}-1H-pyrrolo[2,3-d]pyrimidin-4-yl)amino]benzamide], which IC50 [1] is on record?
**A.** The IC50 was less than 100 nM.

**Q.** What about the IC50 (NCI-H929) of the same compound?
**A.** Its IC50 is less than 250 nM.

**Q.** And the IC50 (Colo205)?
**A.** Its IC50 is 250 to 1000 nM.

**Q.** What about the IC50 (ALK) of the same compound?
**A.** Its IC50 is 0.251 to 1 nM.

**Q.** Which results are given for `CCNC(=O)c1c(F)cc(F)cc1Nc1nc(Nc2cc3c(cc2OC)CCN3C(=O)CN(C)C)nc2[nH]ccc12` [Example 151, 2-[(2-{[1-(N,N-dimethylglycyl)-5-(methyloxy)-2,3-dihydro-1H-indol-6-yl]amino}-1H-pyrrolo[2,3-d]pyrimidin-4-yl)amino]-N-ethyl-4,6-difluorobenzamide]?
**A.** IC50 [1]: 100 to 500 nM; IC50 (NCI-H929): 250 to 1000 nM; IC50 (Colo205): 250 to 1000 nM; IC50 (ALK): 0.251 to 1 nM

**Q.** How did the IC50 [1] turn out when `COc1cc2c(cc1Nc1nc(Nc3cc(F)cc(F)c3C(N)=O)c3cc[nH]c3n1)N(C(=O)CN(C)C)CC2` [Example 189, 2-[(2-{[1-(N,N-dimethylglycyl)-5-(methyloxy)-2,3-dihydro-1H-indol-6-yl]amino}-1H-pyrrolo[2,3-d]pyrimidin-4-yl)amino]-4,6-difluorobenzamide] was run?
**A.** Its IC50 is less than 100 nM.

**Q.** What about the IC50 (NCI-H929) of the same compound?
**A.** Its IC50 is less than 250 nM.

**Q.** What about the IC50 (Colo205) of the same compound?
**A.** Its IC50 is less than 250 nM.

**Q.** And the IC50 (ALK)?
**A.** Its IC50 is 1.26 to 3.98 nM.

**Q.** Which IC50 [1] does the source give for `COc1cc(C2CCN(C(C)C)CC2)ccc1Nc1nc(Nc2ccc(F)cc2C(N)=O)c2cc[nH]c2n1` [Example 58, 5-fluoro-2-[(2-{[4-[1-(1-methylethyl)-4-piperidinyl]-2-(methyloxy)phenyl]amino}-1H-pyrrolo[2,3-d]pyrimidin-4-yl)amino]benzamide] here?
**A.** Its IC50 is less than 100 nM.

**Q.** What about the IC50 (NCI-H929) of the same compound?
**A.** The IC50 was less than 250 nM.

**Q.** What about the IC50 (Colo205) of the same compound?
**A.** Its IC50 is less than 250 nM.

**Q.** What about the IC50 (ALK) of the same compound?
**A.** Its IC50 is 0.251 to 1 nM.

**Q.** Which IC50 [1] does the source give for `CCCNC(=O)c1c(F)cc(F)cc1Nc1nc(Nc2cc3c(cc2OC)CCN3C(=O)CN(C)C)nc2[nH]ccc12` [Example 152, 2-[(2-{[1-(N,N-dimethylglycyl)-5-(methyloxy)-2,3-dihydro-1H-indol-6-yl]amino}-1H-pyrrolo[2,3-d]pyrimidin-4-yl)amino]-4,6-difluoro-N-propylbenzamide] here?
**A.** Its IC50 is 100 to 500 nM.

**Q.** And the IC50 (NCI-H929)?
**A.** Its IC50 is 250 to 1000 nM.

**Q.** What about the IC50 (Colo205) of the same compound?
**A.** The IC50 was 250 to 1000 nM.

**Q.** And the IC50 (ALK)?
**A.** Its IC50 is 0.251 to 1 nM.

**Q.** `COc1cc2c(cc1Nc1nc(Nc3cccc(F)c3C(N)=O)c3cc[nH]c3n1)CN(C(=O)CCN(C)C)CC2` [Example 230, 2-[(2-{[2-(N,N-dimethyl-β-alanyl)-6-(methyloxy)-1,2,3,4-tetrahydro-7-isoquinolinyl]amino}-1H-pyrrolo[2,3-d]pyrimidin-4-yl)amino]-6-fluorobenzamide] was tested. Which IC50 [1] did it give?
**A.** The IC50 was 100 to 500 nM.

**Q.** And the IC50 (NCI-H929)?
**A.** Its IC50 is 250 to 1000 nM.

**Q.** What about the IC50 (Colo205) of the same compound?
**A.** Its IC50 is greater than 1000 nM.

**Q.** And the IC50 (ALK)?
**A.** The IC50 was 5.01 to 200 nM.

**Q.** What does the source list for `COc1cc(OCCN2CCN(C)CC2)ccc1Nc1nc(Nc2cccc(F)c2C(N)=O)c2cc[nH]c2n1` [Example 203, 2-fluoro-6-({2-[(2-(methyloxy)-4-{[2-(4-methyl-1-piperazinyl)ethyl]oxy}phenyl)amino]-1H-pyrrolo[2,3-d]pyrimidin-4-yl}amino)benzamide]?
**A.** IC50 [1]: < 100 nM; IC50 (NCI-H929): < 250 nM; IC50 (Colo205): 250 to 1000 nM; IC50 (ALK): 0.251 to 1 nM

**Q.** With `COc1cc(N2CCCN(C(C)C)CC2)ccc1Nc1nc(Nc2cccc(F)c2C(N)=O)c2cc[nH]c2n1` [Example 208, 2-fluoro-6-[(2-{[4-[4-(1-methylethyl)hexahydro-1H-1,4-diazepin-1-yl]-2-(methyloxy)phenyl]amino}-1H-pyrrolo[2,3-d]pyrimidin-4-yl)amino]benzamide] as the compound, how does the IC50 [1] read?
**A.** The IC50 was 100 to 500 nM.

**Q.** And the IC50 (NCI-H929)?
**A.** Its IC50 is less than 250 nM.

**Q.** What about the IC50 (Colo205) of the same compound?
**A.** The IC50 was 250 to 1000 nM.

**Q.** And the IC50 (ALK)?
**A.** Its IC50 is 0.251 to 1 nM.
